In patent US9737077B2, “Method for controlling sexuality of hop” (priority 2011, dated 2017):
Entries after “also recorded” stand apart in the source; their conditions may differ. Like-named read-outs stand apart in the source and are kept apart here.

Legend:
[1] = system: Cannabis sativa; conditions: cited from earlier work
[2] = system: hop variety Kirin No. 2 (female plant); test: Forming a male flower on a female plant bred in a greenhouse (Part 3), different chemicals
Method: An over-wintering plant or strain of the hop variety “Kirin No. 2” was cultivated in the same manner as in Example 2.
Silver thiosulfate (STS) was prepared by mixing sodium thiosulfate pentahydrate and silver nitrate in a molar ratio of 8:1. An area to which water was applied was arranged as a control area.
Flower buds were observed from the beginning of July and the sexuality was determined from the mid-July.

[3] = system: female plant of Momordica dioica; conditions: Non Patent Literature 7; cited from earlier work
[4] = system: hop female plant; conditions: spraying 500 ppm (Non Patent Literature 1); cited from earlier work

O=[N+]([O-])[O-].[Ag+] [silver nitrate]
flowers formed on main and lateral branches ([1]; applied to a growing shoot tip (Non Patent Literature 8)): an intersex flower, an incomplete male flower with few stamens or a complete male flower, together with female flowers, were formed
flower sexuality observed ([2]; 8 mM, leaf application 4 times about every 10 days, greenhouse): the female flowers were predominantly observed but the male flowers were observed in part; also recorded: female flowers and male flowers
flower sexuality observed ([2]; 16 mM, leaf application 4 times about every 10 days, greenhouse): male flowers were observed; also recorded: male flowers formed
flower sexuality observed ([2]; 32 mM, leaf application 4 times about every 10 days, greenhouse): male flowers were observed; also recorded: male flowers formed
condition of applied leaves and growth ([2]; all treated areas (all concentrations applied), greenhouse): the applied leaves were partially browned but continued growing
flower formed on female plant [3]: a hermaphrodite flower is formed

CC(Sc1ccccc1Cl)C(=O)[O-].[Na+] (stereo not drawn) [α (2-chlorophenylthio)propionic acid, sodium salt]
flower formed on hop female plant [4]: a male flower was formed

silver thiosulfate complex [STS]
flowers formed on main and lateral branches ([1]; in vivo): an intersex flower, an incomplete male flower with few stamens or a complete male flower, together with female flowers, were formed
condition of applied leaves and growth ([2]; in vivo): the applied leaves were partially browned but continued growing
flower sexuality observed ([2]; in vivo): the female flowers were predominantly observed but the male flowers were observed in part; also recorded: male flowers formed; also recorded: female flowers and male flowers
